Consider one molecule from patent US11643421B2, “Process for the preparation of tricyclic PI3K inhibitor compounds and methods for using the same for the treatment of cancer” (priority 2015, dated 2023).

Structures are written as SMILES.

Series [1] has as its system U87 MG Merchant (MG/M) human glioblastoma xenografts. The method, then:
All in vivo studies were conducted in compliance with Genentech's Institutional Animal Care and Use Committee. […] Cells in log-phase growth were harvested and resuspended in HBSS:Matrigel (BD Biosciences; Franklin Lakes, N.J.) (1:1, v:v) for injection into female NCr nude mice (Taconic Farms, Cambridge City, Ind.) aged 20 weeks. Animals received five million cells subcutaneously in the right lateral thorax in 0.1 mL. […] The inhibitor was formulated once weekly in 0.5% methylcellulose and 0.2% Tween-80 at concentrations needed for target doses in a volume of 0.2 mL. All formulations were stored in a refrigerator and brought to room temperature and mixed well by vortex before oral administration by gavage once daily for 23 days. Tumor volumes were calculated from perpendicular length and width caliper measurements using the formula: Tumor Volume (mm^3)=0.5×(Length×Width^2). Changes in body weights are reported as a percentage change from the starting weight.
Log 2(tumor volume) growth traces were fitted to each dose group with restricted cubic splines for the dose and fixed time effects. […] Fitted tumor volumes were plotted in the natural scale in Prism (version 5.0b for Mac) (GraphPad Software; La Jolla, Calif.). Linear mixed-effects analysis was also employed using R to analyze the repeated measurement of body weight changes from the same animals over time.
The mice control group was administered the vehicle in the absence of the drug once at the same dosage schedule. Changes in tumor volumes over time by dose for each compound are depicted in FIG. 3 as cubic spline fits generated via Linear Mixed Effects analysis of log-transformed volumes.

Series [2] is described as follows: Hepatocyte stability, predicted hepatic clearance. The class given is in vitro ADME. The conditions noted are these: in vitro t1/2 method. The method, then: The hepatocyte stability of compound IIIat was evaluated across preclinical species. Certain in vivo pharmacokinetic parameters were also evaluated. […] Male Sprague-Dawley rats, female CD-1 mice, male cynomolgus monkeys and beagle dogs were dosed intravenously with 1 mg/kg of compound IIIat prepared in 60% PEG400/10% Ethanol. Compound IIIat was administered orally (PO) at the indicated dose in 0.5% methylcellulose with 0.2% Tween 80 (MCT).

The test system of series [3] is high-grade gliomas. In words: Phase I study, FDG-PET tumor response. The class given is in vivo, human. The conditions noted are these: 27 patients who underwent FDG-PET imaging.
Description: The outcome measure for this objective was based on the maximum standard uptake value (SUVmax) of up to five lesions. The tumor regions of interest (ROIs) were identified for each patient on pretreatment PET imaging and corresponded to a subset of the target lesions used for analysis of the patient's pretreatment tumor assessment scans. […] Specifically, the SUVmax of each ROI on the on-treatment scans was compared with its SUVmax on the corresponding pretreatment scan and the percent change was determined. In the event of more than one ROI, the overall percent change in SUVmax was the arithmetic mean of the percent changes in SUVmax for each of the ROIs (mSUVmax). PET response is defined as follows. Progressive disease (PET-PD): percent increase of >20% in mSUVmax or the development of a new lesion with an SUVmax above background and not explained by another cause (e.g., infection). Stable disease (PET-SD): percent increase of ≤20% in mSUVmax or a percent decrease of ≤20% in mSUVmax. Partial response (PET-PR): percent decrease of >20% in mSUVmax. […]
Reduction in ^18F-FDG uptake measured by PET is indicative of reduced glucose metabolism activity, a likely PD response of PI3K pathway inhibition.
Series [4] concerns high-grade gliomas. In words: Phase I study, best overall response (RANO). In kind it is in vivo, human. The note with it: evaluable patients. The method, then:
Tumor response was determined by either an assessment of FDG-PET or by Response Assessment in Neuro-Oncology (RANO).
Tumor response under the RANO guidelines was done generally in accordance with the Wen method (Wen P Y, Macdonald D R, Reardon D A, et al. “Updated response assessment criteria for high-grade gliomas: Response Assessment in Neuro-Oncology Working Group”, J Clin Oncol 2010; 28:1963-72) where the disease is categorized as “complete response”, “partial response”, “stable disease” and “progression”. Among other factors, a complete response required all of the following: complete disappearance of all enhancing measurable and non-measurable disease sustained for at least 4 weeks; no new lesions; and stable or improved non-enhancing (T2/FLAIR) lesions. A partial response required, among other factors, ≥50% decrease, compared with baseline, in the sum of the products of the perpendicular diameters of all measurable enhancing lesions (such as measured by MRI) sustained for at least 4 weeks; no progression of non-measurable disease; and no new lesions.

The target in a further series is T1, human P-gp (MDR1) (Homo sapiens, UniProt P08183).
T1 construct: host or cells: MDR1-MDCKI (canine kidney)
T1 sequence (P08183 whole entry): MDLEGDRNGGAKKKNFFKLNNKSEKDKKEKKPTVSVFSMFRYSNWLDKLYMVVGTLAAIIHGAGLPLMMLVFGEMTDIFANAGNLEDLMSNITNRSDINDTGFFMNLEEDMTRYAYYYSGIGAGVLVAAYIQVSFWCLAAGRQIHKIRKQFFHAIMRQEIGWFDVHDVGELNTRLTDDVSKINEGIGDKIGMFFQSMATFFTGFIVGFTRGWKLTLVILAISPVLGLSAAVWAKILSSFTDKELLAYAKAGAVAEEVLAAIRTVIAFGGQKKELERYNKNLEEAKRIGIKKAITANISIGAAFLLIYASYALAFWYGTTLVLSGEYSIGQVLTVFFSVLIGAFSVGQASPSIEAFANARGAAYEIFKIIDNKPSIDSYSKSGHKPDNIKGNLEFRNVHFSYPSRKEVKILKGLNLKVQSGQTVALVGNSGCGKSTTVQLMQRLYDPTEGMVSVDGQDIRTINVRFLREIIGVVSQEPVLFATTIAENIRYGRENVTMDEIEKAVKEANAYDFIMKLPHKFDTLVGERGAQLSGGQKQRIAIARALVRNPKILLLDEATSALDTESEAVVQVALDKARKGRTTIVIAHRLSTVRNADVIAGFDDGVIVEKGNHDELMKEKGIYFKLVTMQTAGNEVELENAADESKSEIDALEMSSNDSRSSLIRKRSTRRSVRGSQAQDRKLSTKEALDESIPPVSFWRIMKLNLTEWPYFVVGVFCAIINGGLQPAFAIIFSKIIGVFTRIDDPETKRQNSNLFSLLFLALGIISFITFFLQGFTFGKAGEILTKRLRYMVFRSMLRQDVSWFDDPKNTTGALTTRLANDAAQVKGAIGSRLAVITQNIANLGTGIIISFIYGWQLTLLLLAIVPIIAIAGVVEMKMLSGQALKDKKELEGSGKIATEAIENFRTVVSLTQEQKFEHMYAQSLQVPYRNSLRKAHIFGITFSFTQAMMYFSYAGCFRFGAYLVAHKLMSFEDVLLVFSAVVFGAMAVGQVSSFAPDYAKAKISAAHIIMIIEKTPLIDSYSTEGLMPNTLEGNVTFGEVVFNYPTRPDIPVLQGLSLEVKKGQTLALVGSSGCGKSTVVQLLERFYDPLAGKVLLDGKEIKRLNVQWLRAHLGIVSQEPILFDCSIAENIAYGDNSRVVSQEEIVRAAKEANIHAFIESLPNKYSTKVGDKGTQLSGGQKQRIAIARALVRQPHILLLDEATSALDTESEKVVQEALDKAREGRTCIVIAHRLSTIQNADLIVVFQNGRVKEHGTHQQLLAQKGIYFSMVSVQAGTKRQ
Description: Transport assay in MDR1-MDCKI cell monolayers. In kind it is in vitro ADME. The note with it: MDCK-MDR1, 2-hour incubation. The method, then:
MDR1-MDCKI cells were licensed from the NCI (National Cancer Institute, Bethesda, Md.) and Bcrp1-MDCKII, BCRP-MDCKII and Mdr1a-LLC-PK1 cells were obtained from the Netherlands Cancer Institute (Amsterdam. The Netherlands). […] The compound was dissolved in transport buffer consisting of Hank's balanced salt solution (HBSS) with 10 mM HEPES (Invitrogen Corporation, Grand Island, N.Y.). Lucifer Yellow (Sigma-Aldrich, St. Louis, Mo.) was used as the paracellular and monolayer integrity marker. […] The efflux ratio (ER) was calculated (Papp, B-A/Papp, A-B).

Series [5] is described as follows: Brain binding, dialysis of brain homogenate. The conditions noted are these: mouse brain homogenate, n=3, read-out: free fraction in brain tissues. The class given is in vitro ADME. The method, then:
Following dialysis, tissues and buffer samples were analyzed as described for the plasma protein binding studies.

The next series concerns the target AKT1 (Homo sapiens, UniProt P31749). In words: biochemical. The note with it: read-out: % inhib.
Another series concerns the target GCK (Homo sapiens, UniProt Q12851). In words: biochemical. The note with it: read-out: % inhib.
In the next series the target is GRK5 (Homo sapiens, UniProt P34947). Description: biochemical. The note with it: read-out: % inhib.
Chain of GRK5 (P34947 whole entry): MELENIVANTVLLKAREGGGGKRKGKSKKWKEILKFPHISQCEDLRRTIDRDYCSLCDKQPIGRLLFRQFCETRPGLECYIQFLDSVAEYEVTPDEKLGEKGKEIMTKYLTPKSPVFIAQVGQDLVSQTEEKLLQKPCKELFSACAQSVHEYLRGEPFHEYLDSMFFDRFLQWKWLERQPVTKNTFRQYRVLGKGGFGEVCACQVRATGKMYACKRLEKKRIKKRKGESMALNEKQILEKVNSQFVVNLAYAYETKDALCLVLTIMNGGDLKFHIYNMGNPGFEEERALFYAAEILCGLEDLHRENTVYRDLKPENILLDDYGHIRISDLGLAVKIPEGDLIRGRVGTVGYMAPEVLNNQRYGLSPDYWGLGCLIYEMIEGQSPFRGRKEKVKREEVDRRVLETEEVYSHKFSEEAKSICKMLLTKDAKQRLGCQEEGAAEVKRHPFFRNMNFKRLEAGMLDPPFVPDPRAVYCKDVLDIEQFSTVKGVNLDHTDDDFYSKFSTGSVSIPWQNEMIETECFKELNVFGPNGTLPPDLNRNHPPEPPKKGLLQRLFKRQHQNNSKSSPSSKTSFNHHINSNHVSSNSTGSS
A further series addresses MST1 (Homo sapiens, UniProt Q13043). Description: biochemical. The conditions noted are these: read-out: % inhib.

Chain of AKT1 (P31749 whole entry, species assumed): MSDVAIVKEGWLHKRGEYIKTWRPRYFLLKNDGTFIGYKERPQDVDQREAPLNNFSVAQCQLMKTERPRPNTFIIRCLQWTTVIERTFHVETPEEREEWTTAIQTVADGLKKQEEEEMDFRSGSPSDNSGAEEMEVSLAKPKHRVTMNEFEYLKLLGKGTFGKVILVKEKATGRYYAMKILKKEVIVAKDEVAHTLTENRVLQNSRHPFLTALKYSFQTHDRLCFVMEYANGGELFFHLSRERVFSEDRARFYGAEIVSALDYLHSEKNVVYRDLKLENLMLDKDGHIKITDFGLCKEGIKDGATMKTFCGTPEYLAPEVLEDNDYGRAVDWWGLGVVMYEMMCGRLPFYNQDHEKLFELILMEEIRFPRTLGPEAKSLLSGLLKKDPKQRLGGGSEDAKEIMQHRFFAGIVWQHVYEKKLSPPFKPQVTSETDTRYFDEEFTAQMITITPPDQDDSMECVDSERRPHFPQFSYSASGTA
Chain of GCK (Q12851 whole entry): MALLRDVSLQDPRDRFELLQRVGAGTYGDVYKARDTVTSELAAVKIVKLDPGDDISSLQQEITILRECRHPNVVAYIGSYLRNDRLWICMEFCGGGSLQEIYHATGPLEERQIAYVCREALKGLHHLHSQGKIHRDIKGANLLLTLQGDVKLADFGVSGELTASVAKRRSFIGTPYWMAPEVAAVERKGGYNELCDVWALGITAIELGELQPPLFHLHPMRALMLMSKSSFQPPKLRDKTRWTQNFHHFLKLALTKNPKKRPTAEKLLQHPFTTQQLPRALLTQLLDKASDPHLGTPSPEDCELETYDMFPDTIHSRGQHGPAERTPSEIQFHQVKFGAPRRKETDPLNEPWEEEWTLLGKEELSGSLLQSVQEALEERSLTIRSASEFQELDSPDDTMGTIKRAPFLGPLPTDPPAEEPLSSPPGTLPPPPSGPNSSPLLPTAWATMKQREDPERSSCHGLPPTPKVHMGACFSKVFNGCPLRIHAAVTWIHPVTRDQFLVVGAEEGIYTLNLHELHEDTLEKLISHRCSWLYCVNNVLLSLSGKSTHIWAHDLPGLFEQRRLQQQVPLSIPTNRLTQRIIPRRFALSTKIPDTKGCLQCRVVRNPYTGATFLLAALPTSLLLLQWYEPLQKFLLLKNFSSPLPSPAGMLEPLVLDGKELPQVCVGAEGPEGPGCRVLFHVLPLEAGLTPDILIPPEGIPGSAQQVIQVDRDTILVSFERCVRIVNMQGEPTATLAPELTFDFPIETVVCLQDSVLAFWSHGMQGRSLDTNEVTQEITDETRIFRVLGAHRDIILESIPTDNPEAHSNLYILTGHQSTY
Chain of MST1 (Q13043 whole entry): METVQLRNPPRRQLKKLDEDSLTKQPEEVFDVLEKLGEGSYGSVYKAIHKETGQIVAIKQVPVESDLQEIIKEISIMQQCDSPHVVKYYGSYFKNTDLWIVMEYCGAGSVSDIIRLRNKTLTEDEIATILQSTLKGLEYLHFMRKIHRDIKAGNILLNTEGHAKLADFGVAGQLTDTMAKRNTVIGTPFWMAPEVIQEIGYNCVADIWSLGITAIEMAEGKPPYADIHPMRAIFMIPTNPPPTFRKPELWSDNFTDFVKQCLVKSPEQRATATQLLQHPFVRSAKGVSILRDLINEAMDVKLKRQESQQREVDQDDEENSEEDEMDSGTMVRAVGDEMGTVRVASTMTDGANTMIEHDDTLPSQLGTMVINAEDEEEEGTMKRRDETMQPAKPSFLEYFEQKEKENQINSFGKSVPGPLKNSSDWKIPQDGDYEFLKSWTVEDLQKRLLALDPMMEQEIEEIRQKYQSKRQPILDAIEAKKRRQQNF

The term Papp A→B denotes how fast a substance crosses the layer from the apical side. On to `CC1(C)OCCn2c1nc1c(N3CCOCC3)nc(-c3cnc(N)nc3)nc12` [GDC-0084, 5-(6,6-dimethyl-4-morpholino-8,9-dihydro-6H-[1,4]oxazino[3,4-e]purin-2-yl)pyrimidin-2-amine], for which, in series [1] (17.9 mg/kg dose level), the “tumor response at highest dose” value is listed as “tumor regressions”. Moreover, the tumor growth inhibition result in series [1] (0.45-17.9 mg/kg oral, 23 days) was “significant and dose-dependent tumor growth inhibition”. The tolerability entry in series [1] (mouse, in vivo) is “well tolerated”. For the same molecule, in [1] (oral dose escalation), the “dose level at which tumor growth inhibition was first observed” value is 2.2 mg/kg. Further, the Clhep in series [2] (Dog hepatocytes) is listed as 13 mL/min/kg; in series [2] (Mouse hepatocytes), 30 mL/min/kg; in series [2] (Rat hepatocytes) it was 3 mL/min/kg. For the same molecule, in the series on high-grade gliomas [3], the “patients with metabolic partial response on FDG-PET” value is listed as “five”. Further, the “patients with metabolic partial response on FDG-PET, percent” value in the series on high-grade gliomas [3] stood at 18.5%. The “best overall response of progressive disease, patients” value in the series with high-grade gliomas [4] worked out at 26 patients. Also, the “best overall response of progressive disease, percent” value in the series with high-grade gliomas [4] came out at 55.3%. For the same molecule, the “best overall response stable disease, patients” value with high-grade gliomas [4] was 19 patients. Besides, in the series on high-grade gliomas [4], the “best overall response stable disease, percent” value is reported as 40.4%. Besides, the Papp A→B at 2 h, 5 μM at human P-gp (MDR1) was determined as 13.5 ± 0.9 ×10⁻⁶ cm/s. In addition, the fraction unbound at 4 h, 5 µM in [5] amounted to 0.067. In addition, the inhibition at 1 µM at AKT1 was 0.7%; at GCK, 0.9%; at GRK5, -10%; at MST1 it was 5%.
